# Measured values reported in patent US11654136B2, “Phosphoinositide 3-kinase inhibitor with a zinc binding moiety” (Curis, Inc., priority 2011, dated 2023).
# “Also recorded” adds a separate entry of the source. Read-outs that look alike come from different tables or passages of the source.
# Key:
# [1] = tested on: Salmonella typhimurium TA100
# Protocol: (§1) The tester strains used in the mutagenicity assay were Salmonella typhimurium tester strains TA98 (for detecting frame-shift reverse mutation) and TA100 (for detecting point reverse mutation). The assay was conducted in both the presence and absence of S9 mixture along with concurrent vehicle (DMSO, 20 μl/well) and positive controls in duplicate using 6-well plates. […] A reproducible two-fold increase (>2× of vehicle control) of revertant colonies over the daily average control value is considered a positive response of gene mutation for each strain.
# (§2) 2-nitrofluorene and sodium azide served as the positive controls in the absence of S9 for TA98 and TA100 respectively. 2-Aminoanthracene served as the positive controls in the presence of S9 for TA98 and TA100.
# MM1S human MM xenograft = assay: Combination with lenalidomide in the MM1S xenograft model; assay type: in vivo, SCID/Beige mice; details: 75 mg/Kg PO Qd (Mon-Fri); 17 days; single agent
# Protocol: Female SCID/Beige mice at age 4 weeks were housed in ventilated micro-isolator cages (INNOCAGE®IVC, Innovive Inc., San Diego, Calif.) in a controlled climate, fed with sterile high-fat diet (Problab-RMH 2000) ad libitum and provided with sterilized water. All housing and supplies for SCID/Beige mice were sterilized by autoclaving before use. Mice were inspected daily including weekends/holidays by trained animal facility personnel and investigators. All animal procedures were performed under sterile conditions within a biosafety cabinet (for injections) or laminar flow hood (for animal husbandry and non-invasive procedures).
# Cryopreserved MM1S human MM cells were thawed in a 37° C. water bath and cultured in RPMI medium plus 10% Fetal Bovine Serum (FBS) in a tissue culture incubator at 5% CO2. […] The implanted mice were monitored for general health and tumor development daily.
# Tumors were detectable about two weeks following implantation. Tumor size was measured with a caliper. […]
# During each animal study, tumors were measured with calipers, tumor size determined using the above mentioned formula, and tumor size changes in percentage calculated. Mouse body weights were measured with a scale twice per week. […] T/C values were calculated using the following formula: % T/C=100×ΔT/ΔC if ΔT>0. […]
# [2] = tested on: Salmonella typhimurium TA98; assay: Mini-Salmonella/mammalian-microsome reverse mutation assay TA98
# Protocol: as §1, §2
# [3] = presence and absence of S9, up to 1000 μg/well
compound,measurement,setting,value
"COc1ccc(-c2nc(N3CCOCC3)c3sc(CN(C)c4ncc(C(=O)NO)cn4)cc3n2)cn1 [Compound 1, N-hydroxy-2-(((2-(6-methoxypyridin-3-yl)-4-morpholinothieno[3,2-d]pyrimidin-6-yl)methyl)(methyl)amino)pyrimidine-5-carboxamide]",Background Lawn TA100,"[1]; +S9, 62.5 μg/well",4/4
same,"Revertants per well TA100, Mean","[1]; +S9, 62.5 μg/well",32
same,"Revertants per well TA100, well 1","[1]; +S9, 62.5 μg/well",34
same,"Revertants per well TA100, well 2","[1]; +S9, 62.5 μg/well",30
same,Background Lawn TA100,"[1]; +S9, 125 μg/well",4/4
same,"Revertants per well TA100, Mean","[1]; +S9, 125 μg/well",29
same,"Revertants per well TA100, well 1","[1]; +S9, 125 μg/well",28
same,"Revertants per well TA100, well 2","[1]; +S9, 125 μg/well",30
same,Background Lawn TA100,"[1]; +S9, 250 μg/well",4/4
same,"Revertants per well TA100, Mean","[1]; +S9, 250 μg/well",29
same,"Revertants per well TA100, well 1","[1]; +S9, 250 μg/well",30
same,"Revertants per well TA100, well 2","[1]; +S9, 250 μg/well",28
same,Background Lawn TA100,"[1]; +S9, 500 μg/well","3,sp/3,sp"
same,"Revertants per well TA100, Mean","[1]; +S9, 500 μg/well",35
same,"Revertants per well TA100, well 1","[1]; +S9, 500 μg/well",32
same,"Revertants per well TA100, well 2","[1]; +S9, 500 μg/well",37
same,Background Lawn TA100,"[1]; +S9, 1000 μg/well","3,mp/3,mp"
same,"Revertants per well TA100, Mean","[1]; +S9, 1000 μg/well",34
same,"Revertants per well TA100, well 1","[1]; +S9, 1000 μg/well",33
same,"Revertants per well TA100, well 2","[1]; +S9, 1000 μg/well",34
same,Mutagenic response TA100,[1]; [3],no evidence of a significant increase in the mean number of revertant colonies; also recorded: did not induce a positive mutagenic response
same,Background Lawn TA100,"[1]; −S9, 62.5 μg/well",4/4
same,"Revertants per well TA100, Mean","[1]; −S9, 62.5 μg/well",32
same,"Revertants per well TA100, well 1","[1]; −S9, 62.5 μg/well",34
same,"Revertants per well TA100, well 2","[1]; −S9, 62.5 μg/well",30
same,Background Lawn TA100,"[1]; −S9, 125 μg/well",4/4
same,"Revertants per well TA100, Mean","[1]; −S9, 125 μg/well",33
same,"Revertants per well TA100, well 1","[1]; −S9, 125 μg/well",32
same,"Revertants per well TA100, well 2","[1]; −S9, 125 μg/well",34
same,Background Lawn TA100,"[1]; −S9, 250 μg/well","4,sp/4,sp"
same,"Revertants per well TA100, Mean","[1]; −S9, 250 μg/well",32
same,"Revertants per well TA100, well 1","[1]; −S9, 250 μg/well",34
same,"Revertants per well TA100, well 2","[1]; −S9, 250 μg/well",29
same,Background Lawn TA100,"[1]; −S9, 500 μg/well","3,sp/3,sp"
same,"Revertants per well TA100, Mean","[1]; −S9, 500 μg/well",32
same,"Revertants per well TA100, well 1","[1]; −S9, 500 μg/well",33
same,"Revertants per well TA100, well 2","[1]; −S9, 500 μg/well",31
same,Background Lawn TA100,"[1]; −S9, 1000 μg/well","3,mp/3,mp"
same,"Revertants per well TA100, Mean","[1]; −S9, 1000 μg/well",27
same,"Revertants per well TA100, well 1","[1]; −S9, 1000 μg/well",28
same,"Revertants per well TA100, well 2","[1]; −S9, 1000 μg/well",26
same,Tumor growth,MM1S human MM xenograft,more effective than Lenalidomide at either 12.5 or 25 mg/Kg PO as single agents
same,Background Lawn TA98,"[2]; +S9, 62.5 μg/well",4/4
same,"Revertants per well TA98, Mean","[2]; +S9, 62.5 μg/well",5
same,"Revertants per well TA98, well 1","[2]; +S9, 62.5 μg/well",4
same,"Revertants per well TA98, well 2","[2]; +S9, 62.5 μg/well",6
same,Background Lawn TA98,"[2]; +S9, 125 μg/well",4/4
same,"Revertants per well TA98, Mean","[2]; +S9, 125 μg/well",5
same,"Revertants per well TA98, well 1","[2]; +S9, 125 μg/well",6
same,"Revertants per well TA98, well 2","[2]; +S9, 125 μg/well",3
same,Background Lawn TA98,"[2]; +S9, 250 μg/well",4/4
same,"Revertants per well TA98, Mean","[2]; +S9, 250 μg/well",7
same,"Revertants per well TA98, well 1","[2]; +S9, 250 μg/well",8
same,"Revertants per well TA98, well 2","[2]; +S9, 250 μg/well",6
same,Background Lawn TA98,"[2]; +S9, 500 μg/well","3,sp/3,sp"
same,"Revertants per well TA98, Mean","[2]; +S9, 500 μg/well",6
same,"Revertants per well TA98, well 1","[2]; +S9, 500 μg/well",6
same,"Revertants per well TA98, well 2","[2]; +S9, 500 μg/well",6
same,Background Lawn TA98,"[2]; +S9, 1000 μg/well","3,mp/3,mp"
same,"Revertants per well TA98, Mean","[2]; +S9, 1000 μg/well",7
same,"Revertants per well TA98, well 1","[2]; +S9, 1000 μg/well",6
same,"Revertants per well TA98, well 2","[2]; +S9, 1000 μg/well",7
same,Mutagenic response TA98,[2]; [3],no evidence of a significant increase in the mean number of revertant colonies; also recorded: did not induce a positive mutagenic response
same,Background Lawn TA98,"[2]; −S9, 62.5 μg/well",4/4
same,"Revertants per well TA98, Mean","[2]; −S9, 62.5 μg/well",4
same,"Revertants per well TA98, well 1","[2]; −S9, 62.5 μg/well",4
same,"Revertants per well TA98, well 2","[2]; −S9, 62.5 μg/well",4
same,Background Lawn TA98,"[2]; −S9, 125 μg/well",4/4
same,"Revertants per well TA98, Mean","[2]; −S9, 125 μg/well",5
same,"Revertants per well TA98, well 1","[2]; −S9, 125 μg/well",4
same,"Revertants per well TA98, well 2","[2]; −S9, 125 μg/well",6
same,Background Lawn TA98,"[2]; −S9, 250 μg/well","4,sp/4,sp"
same,"Revertants per well TA98, Mean","[2]; −S9, 250 μg/well",6
same,"Revertants per well TA98, well 1","[2]; −S9, 250 μg/well",6
same,"Revertants per well TA98, well 2","[2]; −S9, 250 μg/well",5
same,Background Lawn TA98,"[2]; −S9, 500 μg/well","3,sp/3,sp"
same,"Revertants per well TA98, Mean","[2]; −S9, 500 μg/well",4
same,"Revertants per well TA98, well 1","[2]; −S9, 500 μg/well",5
same,"Revertants per well TA98, well 2","[2]; −S9, 500 μg/well",3
same,Background Lawn TA98,"[2]; −S9, 1000 μg/well","3,mp/3,mp"
same,"Revertants per well TA98, Mean","[2]; −S9, 1000 μg/well",5
same,"Revertants per well TA98, well 1","[2]; −S9, 1000 μg/well",4
same,"Revertants per well TA98, well 2","[2]; −S9, 1000 μg/well",5
